# From patent US20100063065A1 (Inpharmatica Limited, priority 2005, published 2010)
# Molecular target: T1, PPARδ (Homo sapiens, UniProt Q03181)
# T1 construct: fused to amino acids 147-441 of PPARδ downstream of CMV promoter; expressed in transfected cells; host or cells: HEK293 cells, transiently transfected with pFACMV-PPARδ using Fugene
# T1 sequence (Q03181 147-441): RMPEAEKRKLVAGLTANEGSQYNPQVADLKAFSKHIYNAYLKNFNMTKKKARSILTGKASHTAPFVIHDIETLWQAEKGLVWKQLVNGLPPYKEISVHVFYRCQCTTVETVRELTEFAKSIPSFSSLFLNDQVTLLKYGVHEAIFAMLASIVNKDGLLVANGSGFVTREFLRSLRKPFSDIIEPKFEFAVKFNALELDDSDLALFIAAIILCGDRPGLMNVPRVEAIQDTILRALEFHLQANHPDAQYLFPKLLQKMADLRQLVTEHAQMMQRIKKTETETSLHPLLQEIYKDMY
# Assay: Transactivation assay (PPARδ GAL4 assay) in transiently transfected HEK293 cells
# Type: cell-based
# Conditions: luciferase reporter, Table 1
# Method in brief: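 HEK293 cells transiently co-transfected with GAL4 DBD (aa 1-147)–PPARδ (aa 147-441) fusion and 5×GAL4-luciferase reporter, then exposed 24 h to compound (final 0-30 μM) in OptiMEM at 37° C. Luminescence read; activity as percent of GW501516 control, EC50 from sigmoidal dose-response fit.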
row,Structure (SMILES),EC50
1,"CCc1cc(C(=O)c2ccc(Cl)c(Cl)c2)c(NC(=O)CC(C)(C)CC(=O)O)s1 [Example 30, 4-[3-(3,4-Dichloro-benzoyl)-5-ethyl-thiophen-2-ylcarbamoyl]-3,3-dimethyl-butyric acid]",1 to 30 µM
2,"CCc1cc(C(=O)c2ccc3ccccc3c2)c(NC(=O)CSCC(=O)O)s1 [Example 47, {[5-Ethyl-3-(naphthalene-2-carbonyl)-thiophen-2-ylcarbamoyl]-methylsulfanyl}-acetic acid]",0.1 to 1 µM
3,"CCc1cc(C(=O)c2ccc(OC)cc2)c(NC(=O)CSc2ccc(OCC(=O)O)cc2)s1 [Example 89, (4-{[5-Ethyl-3-(4-methoxy-benzoyl)-thiophen-2-ylcarbamoyl]-methylsulfanyl}-phenoxy)-acetic acid]",1 to 30 µM
4,"CCc1cc(C(=O)c2ccc(Cl)c(Cl)c2)c(NC(=O)CSC(C)(C)C(=O)O)s1 [Example 29, 2-{[3-(3,4-Dichloro-benzoyl)-5-ethyl-thiophen-2-ylcarbamoyl]-methylsulfanyl}-2-methyl-propionic acid]",< 0.1 µM
5,"CCc1ccc(C(=O)c2cc(CC)sc2NC(=O)CC2(CC(=O)O)CCCC2)cc1 [Example 11, (1-{[5-Ethyl-3-(4-ethyl-benzoyl)-thiophen-2-ylcarbamoyl]-methyl}-cyclopentyl)-acetic acid]",1 to 30 µM
6,"COc1ccc(C(=O)c2cc(C)sc2NC(=O)CSCC(=O)O)cc1 [Example 61, {[3-(4-Methoxy-benzoyl)-5-methyl-thiophen-2-ylcarbamoyl]-methylsulfanyl}-acetic acid]",1 to 30 µM
7,"COc1ccc(C(=O)c2cc(Cl)sc2NC(=O)CSCC(=O)O)cn1 [Example 65, {[5-Chloro-3-(6-methoxy-pyridine-3-carbonyl)-thiophen-2-ylcarbamoyl]-methylsulfanyl}-acetic acid]",1 to 30 µM
8,"CCc1cc(C(=O)c2ccc(OC)nc2)c(NC(=O)CSCC(=O)O)s1 [Example 55, {[5-Ethyl-3-(6-methoxy-pyridine-3-carbonyl)-thiophen-2-ylcarbamoyl]-methylsulfanyl}-acetic acid]",1 to 30 µM
9,"CCc1cc(C(=O)c2ccc(C(F)(F)F)cc2)c(NC(=O)CSCC(=O)O)s1 [Example 45, {[5-Ethyl-3-(4-trifluoromethylbenzoyl)-thiophen-2-ylcarbamoyl]-methylsulfanyl}-acetic acid]",< 0.1 µM
10,"COc1ccc(C(=O)c2cc(C(C)C)sc2NC(=O)CSCC(=O)O)cc1 [Example 62, {[5-Isopropyl-3-(4-methoxy-benzoyl)-thiophen-2-ylcarbamoyl]-methylsulfanyl}-acetic acid]",1 to 30 µM
11,"CCc1cc(C(=O)c2cnc(OC(C)C)c(Cl)c2)c(NC(=O)CSCC(=O)O)s1 [Example 59, {[3-(5-Chloro-6-isopropoxy-pyridine-3-carbonyl)-5-ethyl-thiophen-2-ylcarbamoyl]-methylsulfanyl}-acetic acid]",0.1 to 1 µM
12,"CCc1cc(C(=O)c2ccc(OC)cc2)c(NC(=O)CC2(CC(=O)O)CCCC2)s1 [Example 6, (1-{[5-Ethyl-3-(4-methoxy-benzoyl)-thiophen-2-ylcarbamoyl]-methyl}-cyclopentyl)-acetic acid]",1 to 30 µM

# Other lines, results leading:
row,EC50,Structure (SMILES)
1,1 to 30 µM,"CCc1cc(C(=O)c2ccc(C)c(C)c2)c(NC(=O)CSCC(=O)O)s1 [Example 51, {[3-(3,4-Dimethyl-benzoyl)-5-ethyl-thiophen-2-ylcarbamoyl]-methylsulfanyl}-acetic acid]"
2,1 to 30 µM,"CCc1cc(C(=O)c2ccc(OC)cc2)c(NC(=O)CSc2cccc(C(=O)O)c2)s1 [Example 90, 3-{[5-Ethyl-3-(4-methoxy-benzoyl)-thiophen-2-ylcarbamoyl]-methylsulfanyl}-benzoic acid]"
3,1 to 30 µM,"CCc1cc(C(=O)c2ccccc2)c(NC(=O)CSCC(=O)O)s1 [Example 14, [(3-Benzoyl-5-ethyl-thiophen-2-ylcarbamoyl)-methylsulfanyl]-acetic acid]"
4,0.1 to 1 µM,"CCc1cc(C(=O)c2ccc(OC(F)(F)F)cc2)c(NC(=O)c2cccc(SCC(=O)O)c2)s1 [Example 98, {3-[5-Ethyl-3-(4-trifluoromethoxy-benzoyl)-thiophen-2-ylcarbamoyl]-phenylsulfanyl}-acetic acid]"
5,0.1 to 1 µM,"CCc1cc(C(=O)c2ccc(F)cc2)c(NC(=O)CSC(C)(C)C(=O)O)s1 [Example 19, 2-{[5-Ethyl-3-(4-fluoro-benzoyl)-thiophen-2-ylcarbamoyl]-methylsulfanyl}-2-methyl-propionic acid]"
6,0.1 to 1 µM,"CCc1cc(C(=O)c2ccc(OC(F)(F)F)cc2)c(NC(=O)CSc2ccc(OCC(=O)O)c(C)c2)s1 [Example 94, (4-{[5-Ethyl-3-(4-trifluoromethoxy-benzoyl)-thiophen-2-ylcarbamoyl]-methylsulfanyl}-2-methyl-phenoxy)-acetic acid]"

# Same assay, conditions: luciferase reporter, Table 2
row,Structure (SMILES),EC50
1,"CCc1cc(C(=O)c2cc3ccccc3o2)c(NC(=O)CSCC(=O)O)s1 [Example 140, {[3-(Benzofuran-2-carbonyl)-5-ethyl-thiophen-2-ylcarbamoyl]-methylsulfanyl}-acetic acid]",1 to 30 µM
2,"CCc1cc(C(=O)c2ccc(OC(F)(F)F)cc2)c(NC(=O)CN2[C@H](C)CC[C@@H]2C(=O)O)s1 (relative stereo) [Example 178, (2R*,5R*)-1-{[5-Ethyl-3-(4-trifluoromethoxy-benzoyl)-thiophen-2-ylcarbamoyl]-methyl}-5-methyl-pyrrolidine-2-carboxylic acid]",1 to 30 µM
3,"CCc1cc(C(=O)c2ccc(OC(F)(F)F)cc2)c(NC(=O)CN(C)C2(C(=O)O)CC2)s1 [Example 197, 1-({[5-Ethyl-3-(4-trifluoromethoxy-benzoyl)-thiophen-2-ylcarbamoyl]-methyl}-methyl-amino)-cyclopropanecarboxylic acid]",0.1 to 1 µM
4,"CCc1cc(C(=O)c2ccc(OC(F)(F)F)cc2)c(NC(=O)CN2CCCC(C(=O)O)C2)s1 (stereo not shown) [Example 159, 1-{[5-Ethyl-3-(4-trifluoromethoxy-benzoyl)-thiophen-2-ylcarbamoyl]-methyl}-piperidine-3-carboxylic acid]",0.1 to 1 µM
5,"CCc1cc(C(=O)c2ccc(OC(F)(F)F)cc2)c(NC(=O)CCC(C)(C)C(=O)O)s1 [Example 146, 4-[5-Ethyl-3-(4-trifluoromethoxy-benzoyl)-thiophen-2-ylcarbamoyl]-2,2-dimethyl-butyric acid]",< 0.1 µM
6,"CCc1cc(C(=O)c2cc3cc(OC(F)(F)F)ccc3n2C)c(NC(=O)CSCC(=O)O)s1 [Example 150, {[5-Ethyl-3-(1-methyl-5-trifluoromethoxy-1H-indole-2-carbonyl)-thiophen-2-ylcarbamoyl]-methylsulfanyl}-acetic acid]",< 0.1 µM
7,"CCc1cc(C(=O)c2ccc(OC(F)(F)F)c(F)c2)c(NC(=O)CCC(C)(C)C(=O)O)s1 [Example 148, 4-[5-Ethyl-3-(3-fluoro-4-trifluoromethoxy-benzoyl)-thiophen-2-ylcarbamoyl]-2,2-dimethyl-butyric acid]",0.1 to 1 µM

# Continued, values first:
row,EC50,Structure (SMILES)
1,0.1 to 1 µM,"CCc1cc(C(=O)c2ccc(OC(F)(F)F)cc2)c(NC(=O)CN[C@@H](CC)C(=O)O)s1 [Example 191, (S)-2-({[5-Ethyl-3-(4-trifluoromethoxy-benzoyl)-thiophen-2-ylcarbamoyl]-methyl}-amino)-butyric acid]"
2,1 to 30 µM,"CCc1cc(C(=O)c2cccc(OC(F)(F)F)c2)c(NC(=O)CSCC(=O)O)s1 [Example 143, {[5-Ethyl-3-(3-trifluoromethoxy-benzoyl)-thiophen-2-ylcarbamoyl]-methylsulfanyl}-acetic acid]"
3,< 0.1 µM,"CCc1cc(C(=O)c2ccc(OC(F)(F)F)cc2)c(NC(=O)CCSCC(=O)O)s1 [Example 194, {2-[5-Ethyl-3-(4-trifluoromethoxy-benzoyl)-thiophen-2-ylcarbamoyl]-ethylsulfanyl}-acetic acid]"
4,< 0.1 µM,"CCc1cc(C(=O)c2ccc(OC(F)(F)F)cc2)c(NC(=O)C(C)N2[C@@H](C(=O)O)CC[C@@H]2C)s1 (stereo partly drawn) [Example 186, (2R,5S)-1-{1-[5-Ethyl-3-(4-trifluoromethoxy-benzoyl)-thiophen-2-ylcarbamoyl]-ethyl}-5-methyl-pyrrolidine-2-carboxylic acid]"
5,0.1 to 1 µM,"CCc1cc(C(=O)c2ccc(OC(F)(F)F)cc2)c(NC(=O)c2ccc(NCC(=O)O)cc2)s1 [Example 115, {4-[5-Ethyl-3-(4-trifluoromethoxy-benzoyl)-thiophen-2-ylcarbamoyl]-phenylamino}-acetic acid]"
6,0.1 to 1 µM,"CCc1cc(C(=O)c2cn(C)c3ccc(Cl)cc23)c(NC(=O)CSCC(=O)O)s1 [Example 157, {[3-(5-Chloro-1-methyl-1H-indole-3-carbonyl)-5-ethyl-thiophen-2-ylcarbamoyl]-methylsulfanyl}-acetic acid]"
7,0.1 to 1 µM,"CCc1cc(C(=O)c2ccc(OC(F)(F)F)cc2)c(NC(=O)C(C)(C)NCC(=O)O)s1 [Example 118, {1-[5-Ethyl-3-(4-trifluoromethoxy-benzoyl)-thiophen-2-ylcarbamoyl]-1-methyl-ethylamino}-acetic acid]"
8,0.1 to 1 µM,"CCc1cc(C(=O)c2ccc(Cl)cc2)c(NC(=O)CCC(C)(C)C(=O)O)s1 [Example 147, 4-[3-(4-Chloro-benzoyl)-5-ethyl-thiophen-2-ylcarbamoyl]-2,2-dimethyl-butyric acid]"
9,< 0.1 µM,"CCc1cc(C(=O)c2ccc(OC(F)(F)F)cc2)c(NC(=O)CN2CCCC2C(=O)O)s1 (stereo not shown) [Example 189, 1-{[5-Ethyl-3-(4-trifluoromethoxy-benzoyl)-thiophen-2-ylcarbamoyl]-methyl}-pyrrolidine-2-carboxylic acid]"
